Reference: patent EP1568770A2, “Pharmaceutical use of compounds which bind to a mammalian "trace amine" receptor” (priority 2000, dated 2002)
Entries after “also recorded” stand apart in the source; their conditions may differ. Where two headings read alike, the source gives them in different places.

Legend:
[1] = target: T1, rat trace amine receptor (Rattus norvegicus, UniProt Q923Y9); experiment: cell-based; format: cell-based; details: for Emax: HEK293, percent of stimulation by p-tyramine, read-out: Maximal Stimulation (%±SEM)
T1 construct: HEK293 cells stably transfected with the pcDNA3.1/V5/His-TOPO expression vector containing the full-length rat cDNA clone described above; expressed in transfected cells

[2] = tested on: human trace amine receptor; format: cell-based; details: luciferase reporter; HEK 293 cells transfected with H2-3pcDNA3.1
[3] = tested on: HEK 293 cells; format: cell-based, human; details: luciferase reporter; control cells transfected with pcDNA3.1
Excerpt: Control cells were transfected with pcDNA3.1 without the rat trace amine receptor sequences. All cells were also co-transfected with 2 additional constructs: one (elk-gal) that encoded the yeast transcription factor gal under the transcriptional control of an Elk-responsive promoter; and another encoding firefly luciferase under the transcriptional control of a gal-responsive promoter. […]

[4] = untitled table after Table III, DRUGS, read-out: EC50
[5] = Table III, cAMP, 1 hour at 37°C, 100 µM IBMX, read-out: EC50 (nM±SEM)

T1 sequence (Q923Y9 whole entry): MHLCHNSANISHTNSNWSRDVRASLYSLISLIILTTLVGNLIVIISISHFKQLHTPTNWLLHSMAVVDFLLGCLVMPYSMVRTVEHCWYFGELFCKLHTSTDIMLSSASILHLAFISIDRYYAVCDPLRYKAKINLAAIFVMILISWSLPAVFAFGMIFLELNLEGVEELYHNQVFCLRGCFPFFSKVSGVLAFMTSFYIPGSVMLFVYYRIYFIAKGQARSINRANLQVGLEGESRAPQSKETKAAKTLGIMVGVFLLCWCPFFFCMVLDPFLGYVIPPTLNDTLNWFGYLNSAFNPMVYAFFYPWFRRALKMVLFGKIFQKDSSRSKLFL

Row | SMILES | activation of the trace amine receptor / cAMP production, in words [1] | other results
1 | CN1C[C@H](C(=O)N[C@]2(C)O[C@@]3(O)[C@@H]4CCCN4C(=O)[C@H](Cc4ccccc4)N3C2=O)C[C@@H]2c3cccc4[nH]cc(c34)C[C@H]21 [dihydroergotamine] | potently activate; also recorded: stimulate camp production | 
2 | NCCc1ccc(O)cc1 [p-tyramine] |  | EC50 ([1]; read-out: EC50 (nM±SEM)): 69 ± 9 nM
3 | C[C@@H](N)Cc1ccc(O)cc1 [R-OH amphetamine] |  | EC50 [1, 4]: 11.3 nM
4 | CN[C@H](C)Cc1ccccc1 [R-methamphetamine] |  | EC50 [1, 4]: 236 nM
5 | NCCc1c[nH]cn1 [histamine] | not activated | 
6 | COc1cc(CC(=O)O)ccc1O [homovanillic acid, 3-methoxy-4-hydroxyphenylacetic acid] | no detectible activity | 
7 | COc1cc(C(O)CN)ccc1O (stereo not drawn) [normetanephrine, 3-methoxy-β-4-dihydroxy-β-phenethlamine] | efficacious activators | 
8 | CCNC(C)Cc1ccccc1 (racemic) [(±)N-ethylamphetamine] | substantially lower activities | 
9 | CN1CCCC1c1cccnc1 (stereo not drawn) [nicotine] | not activated | 
10 | CNCC(O)c1ccc(O)cc1 (stereo not drawn) [Synephrine] |  | Emax ([1]; Table III): 90 ± 2%
11 | NCCc1cccc(O)c1 [m-tyramine] |  | Emax ([1]; Table III): 74 ± 3%
12 | NC1CCc2cc(O)c(O)cc2C1 (stereo not drawn) [ADTN67] |  | fold stimulation for each potential ligand compared with cells incubated in the absence of the ligand, H2-3 pcDNA3.1 [2]: 1.93 fold; fold stimulation for each potential ligand compared with cells incubated in the absence of the ligand, pcDNA3.1 [3]: 0.78 fold
13 | CCNC(C)Cc1cccc(C(F)(F)F)c1 (racemic) [(±)fenfluramine] | substantially lower activities | 
14 | CC(N)Cc1ccc(O)cc1 (stereo not drawn) [4-hydroxyamphetamine, α-methyl-p-tyramine] | most potent agonist | Emax ([1]; Table III): 79 ± 2%; EC50 [1, 5]: 51 ± 12 nM
15 | c1ccc(CC2=NCCN2)cc1 [Tolazoline] | stimulate camp production | 
16 | CN[C@@H](C)Cc1ccccc1 [methamphetamine] | potently stimulated cAMP production | 
17 | NC[C@H](O)c1ccc(O)c(O)c1 [Norepinephrine] |  | fold stimulation for each potential ligand compared with cells incubated in the absence of the ligand, H2-3 pcDNA3.1 [2]: 1.69 fold; fold stimulation for each potential ligand compared with cells incubated in the absence of the ligand, pcDNA3.1 [3]: 1.3 fold
18 | NCCc1ccccc1 [Phenethylamine, β-phenethylamine] |  | Emax ([1]; Table III): 76 ± 16%

Row | SMILES | activation of the trace amine receptor / cAMP production, in words [1] | other results
19 | C[C@@H](CO)NC(=O)[C@@H]1C=C2c3cccc4[nH]cc(c34)C[C@H]2N(C)C1 [Ergotmetrine, ergometrine] | potently activate | 
20 | CN1CC[C@]23c4c5ccc(O)c4O[C@H]2[C@@H](O)C=C[C@H]3[C@H]1C5 [morphine] | not activated | 
21 | CN1Cc2c(N)cccc2C(c2ccccc2)C1 (stereo not drawn) [nomifensine] | stimulate camp production | 
22 | CC(C)C[C@H]1C(=O)N2CCC[C@H]2[C@]2(O)O[C@](NC(=O)[C@@H]3C=C4c5cccc6[nH]c(Br)c(c56)C[C@H]4N(C)C3)(C(C)C)C(=O)N12 [Bromocryptine, bromocriptine] | potently activate | 
23 | Cc1ccc(N(CC2=NCCN2)c2cccc(O)c2)cc1 [Phentolamine] | stimulate camp production | 
24 | CNCC(O)c1ccc(O)c(OC)c1 (stereo not drawn) [metanephrine, 3-methoxy-β-4-dihydroxy-N-methyl-β-phenethylamine] | efficacious activators | 
25 | NCCc1c[nH]c2ccc(O)cc12 [Serotonin, 5-hydroxytryptamine] |  | fold stimulation for each potential ligand compared with cells incubated in the absence of the ligand, pcDNA3.1 [3]: 1 fold; Emax ([1]; Table III): 47 ± 9%
26 | CNC(C)Cc1ccc2c(c1)OCO2 (racemic) [MDMA] | potently stimulated cAMP production | Emax ([1]; Table III): 65 ± 13%; EC50 [1, 5]: 1750 ± 1150 nM; EC50 [1, 4]: 179 nM
27 | CCN(CC)C(=O)[C@@H]1C=C2c3cccc4[nH]cc(c34)C[C@H]2N(C)C1 [D-LSD] | potently activate | 
28 | COc1cc(CCN)ccc1O [3-methoxytyramine] | efficacious activators | activation of the trace amine receptor / cAMP production, in words ([1]; listed as 3-MT): potent and efficacious agonist
29 | NCC(O)c1ccc(O)cc1 (stereo not drawn) [Octopamine] |  | Emax ([1]; Table III): 102 ± 3%; EC50 ([1]; read-out: EC50 (nM±SEM)): 1300 ± 350 nM
30 | NCCCC(=O)O [GABA] | not activated | 
31 | NCCc1c[nH]c2ccccc12 [Tryptamine] |  | Emax ([1]; Table III): 90 ± 6%; EC50 [1, 5]: 309 ± 76 nM
32 | C=CCN1CCc2c(cc(O)c(O)c2Cl)C(c2ccccc2)C1 (stereo not drawn) [SKF82958] |  | fold stimulation for each potential ligand compared with cells incubated in the absence of the ligand, H2-3 pcDNA3.1 [2]: 2.52 fold
33 | CN1CC=C(c2ccccc2)CC1 [MPTP, 1-methyl-4-phenyl-1,2,3,6-tetrahydropyridine] | stimulate camp production | Emax ([1]; Table III): 93 ± 7%
34 | CN(C)CCCN1c2ccccc2Sc2ccc(Cl)cc21 [chlorpromazine] | weak agonist | 
35 | CN1C[C@H](CNC(=O)OCc2ccccc2)C[C@@H]2c3cccc4c3c(cn4C)C[C@H]21 [metergoline] | stimulate camp production | 
36 | COc1cc(CC(C)N)c(OC)cc1I (stereo not drawn) [2-amino,(1-[2,5-dimethoxy-4-iodophenyl]propane] | activate the receptor | 
